For test [1], the target named is Human immunodeficiency virus type 1 reverse transcriptase (Human immunodeficiency virus 1) (UniProt Q72547). Description: Inhibition of wild type HIV1 reverse transcriptase.
For test [2], the system named is Human immunodeficiency virus 1. Kind of test: Antiviral activity against drug-resistant HIV1 with reverse transcriptase K103N mutant infected in human MT4 cells assessed as virus-induced cell death by MTT method. Type of test: functional. To be noted: Human immunodeficiency virus 1, MT4; read-out: ED50 (the source's name). (In general: Tetrazolium assays rely on reduction of a dye to a coloured formazan, in cell work by metabolically active cells.)

The test system of test [3] is Human immunodeficiency virus 1. Description: Antiviral activity against drug-resistant HIV1 with reverse transcriptase Y181C mutant infected in human MT4 cells assessed as virus-induced cell death by MTT method. Type of test: functional. To be noted: Human immunodeficiency virus 1, MT4; read-out: ED50 (the source's name).
Test [4] has as its system Human immunodeficiency virus 1. Description: Antiviral activity against wild type HIV1 NL4-3 infected in human MT4 cells assessed as virus-induced cell death by MTT method. The note with it: Human immunodeficiency virus 1, NL4-3, MT4; read-out: ED50 (the source's name). Type of test: functional.
Test [5] in a line: Ratio of ED50 for drug resistant HIV1 with reverse transcriptase K103N mutant to wild type HIV1 NL4-3. Type of test: functional.
A short description of test [6]: Ratio of ED50 for drug resistant HIV1 with reverse transcriptase Y181C mutant to wild type HIV1 NL4-3. Type of test: functional.

From ChEMBL document CHEMBL1143432, “Towards novel S-DABOC inhibitors: synthesis, biological investigation, and molecular modeling studies” (2008) come the findings set out here.

A value given as a limit tells only on which side of the number the result lay.

In test [1], `CSc1nc(N)c(C)c(C(=O)Cc2ccccc2)n1` yielded an ID50 of over 20 µM. Also, the EC50 in test [2], in test [3] and in test [4] was over 25 µM in each case.

For the compound `CSc1nc(N)c(C)c(C(O)c2ccccc2)n1` (centres undefined), the ID50 in test [1] was 7.7 µM. Further, the EC50 in test [2], in test [3] and in test [4] was over 25 µM throughout.

Take `CSc1nc(N)c(C)c(C(=O)CCc2ccccc2)n1`: the ID50 in test [1] is over 20 µM. Further, the EC50 in test [2], in test [3] and in test [4] was over 25 µM in each case.

Take `O=C1Nc2ccc(Cl)cc2[C@@](C#CC2CC2)(C(F)(F)F)O1` [EFAVIRENZ]: the EC50 in test [2] is 0.133 µM; in test [3], 0.008 µM.

In test [1], `Cc1c(N)nc(S(C)(=O)=O)nc1C(=O)c1ccccc1` returned an ID50 of 16 µM. Further, the values for the Ratio EC50 in test [5] and in test [6] were 43 and 23, respectively. For the same compound, the EC50 in test [2] stood at 19.1 µM; in test [3], 10.4 µM; in test [4], 0.44 µM.

In the case of `CSc1nc(N)c(C)c(C(F)c2ccccc2)n1` (centres undefined), the ID50 in test [1] is over 20 µM. In addition, the EC50 in test [2], in test [3] and in test [4] was over 25 µM each time.

In turn, `CSc1nc(N)c(C)c(C(=O)c2cccc(F)c2)n1` had an ID50 in test [1] of 0.2 µM. The Ratio EC50 in test [5] stood at 20; in test [6] it was 23. In addition, the EC50 in test [2] is 0.695 µM; in test [3] it was 0.779 µM; in test [4] it was 0.034 µM.

`CNc1nc(N)c(C)c(C(=O)c2ccccc2)n1` displayed an ID50 in test [1] of over 20 µM. The EC50 in test [2] was over 25 µM; in test [3], over 25 µM; in test [4], 3.4 µM.

On to `CSc1nc(N)c(C)c(/C(=N\O)c2ccccc2)n1`, for which the ID50 in test [1] was over 20 µM. Besides, the EC50 was over 25 µM in test [2], over 25 µM in test [3] and 10.5 µM in test [4].

For the compound `Cc1ccnc2c1NC(=O)c1cccnc1N2C1CC1` [NEVIRAPINE], the Ratio EC50 in test [5] was determined as 17. Moreover, the EC50 was 0.68 µM in test [2], over 2 µM in test [3] and 0.04 µM in test [4].

Take `CSc1nc(N)c(C)c(C(=O)c2ccccc2)n1`: the ID50 in test [1] was determined as 1.9 µM. The Ratio EC50 in test [5] and in test [6] was 28 each time. The EC50 in test [2] was found to be 1.67 µM; in test [3], 1.71 µM; in test [4], 0.06 µM.

As to `COc1ccc(CSc2nc(Cc3c(Cl)cccc3Cl)c(C)c(=O)[nH]2)cc1`, in test [5], the Ratio EC50 is 671. Further, the EC50 in test [2] stood at 4.7 µM; in test [4] it was 0.007 µM.

For the compound `CSc1nc(N)c(C)c(C(Cl)c2ccccc2)n1` (centres undefined), the ID50 in test [1] is over 20 µM. Besides, the EC50 in test [2] is over 25 µM; in test [3], over 25 µM; in test [4] it was 12 µM.

Turning to `CSc1nc(N)c(C)c(C(=O)c2cccc3ccccc23)n1`, the ID50 in test [1] was found to be 2.7 µM. Besides, the EC50 in test [2], in test [3] and in test [4] was over 19.4 µM throughout.
